The numbers were not newly measured in patent EP0408384A1, “N,N'-dicarboxymethyl, N,N'-dicarbamoylmethyl diaminoalkane derivatives and their use in pharmaceutical compositions” (BRITISH TECHNOLOGY GROUP LIMITED, priority 1989, dated 1991), which cites them from elsewhere.

The test system of this data set is daunorubicin toxicity. Conditions: acute daunorubicin toxicity; literature report.

As to `O=C1CN(CCN2CC(=O)N(CN3CCOCC3)C(=O)C2)CC(=O)N1CN1CCOCC1` [bimolane], the “protection against the lethal effects of daunorubicin” value is listed as “give protection”. Take `CC(CN1CC(=O)NC(=O)C1)N1CC(=O)NC(=O)C1` (centres unmarked) [compound having R = CH₃ and R′ = R˝ = H]: the “protection against the lethal effects of daunorubicin” value is “give protection”.
